Results from ChEMBL document CHEMBL6178017, “Intercepting the Downstream of the Estrogen Receptor Signaling Pathway: Discovery of a Potent and Efficient SRC-3 PROTAC Degrader for Overcoming Endocrine Resistance Breast Cancer” (J Med Chem, 2025).
Active and inactive are the calls of the source. No cut-off for these calls is given here.

Legend:
[1] = Induction of apoptosis in tamoxifen-resistant human LCC2 cells assessed as viable cells incubated for 48 hrs by AnnexinV-FITC/PI staining based flow cytometry (reference value: 88.09%); type: functional, Tamoxifen-resistant LCC2 cell
Mus musculus = assay: In vivo PROTAC activity at CRBN/SRC-3 in Balb/c mouse xenografted with tamoxifen-resistant human LCC2 cells assessed as induction of SRC-3 degradation in tumor tissues at 5 uM/Kg, ip administered once every 2 days for 23 days and measured on day 25 by western blot analysis; type: functional, organism-based; conditions: time 25.0 day
MCF7 [2] = assay: Antiproliferative activity against human MCF7 cells harboring ER-alpha Y537S mutant assessed as inhibition of cell growth by CCK8 assay; type: functional, cell-based
[3] = Induction of apoptosis in tamoxifen-resistant human LCC2 cells assessed as necrotic cells incubated for 48 hrs by AnnexinV-FITC/PI staining based flow cytometry (reference value: 1.16%); type: functional, Tamoxifen-resistant LCC2 cell
MCF7 [4] = assay: Induction of SRC-3 degradation in human MCF7 cells at 1 uM incubated for 24 hrs by immunoblot analysis relative to control; type: cell-based
[5] = Antiproliferative activity against tamoxifen-resistant human LCC2 cells assessed as inhibition of cell growth by CCK8 assay; type: functional, cell-based
[6] = Induction of apoptosis in tamoxifen-resistant human LCC2 cells assessed as early apoptotic cells incubated for 48 hrs by AnnexinV-FITC/PI staining based flow cytometry (reference value: 5.92%); type: functional, Tamoxifen-resistant LCC2 cell
MCF7 [7] = assay: Induction of ER-alpha degradation in human MCF7 cells at 1 uM incubated for 24 hrs by immunoblot analysis relative to control; type: cell-based
MCF7 [8] = assay: Antiproliferative activity against human MCF7 cells assessed as inhibition of cell growth by CCK8 assay; type: functional, cell-based
[9] = Induction of apoptosis in tamoxifen-resistant human LCC2 cells assessed as late apoptotic cells incubated for 48 hrs by AnnexinV-FITC/PI staining based flow cytometry (reference value: 4.83%); type: functional, Tamoxifen-resistant LCC2 cell
MCF7 [10] = assay: Antiproliferative activity against human MCF7 cells harboring ER-alpha D538G mutant assessed as inhibition of cell growth by CCK8 assay; type: functional, cell-based
[11] = molecular target: T1, Protein cereblon/Nuclear receptor coactivator 3 (Homo sapiens, UniProt Q9Y6Q9+Q96SW2); assay: PROTAC activity at CRBN/SRC-3 in human MCF7 cells assessed as induction of ER-alpha degradation at 1 uM incubated for 24 hrs by immunoblot analysis relative to control; type: cell-based
[12] = molecular target: T1, Protein cereblon/Nuclear receptor coactivator 3; assay: PROTAC activity at CRBN/SRC-3 in human MCF7 cells assessed as induction of SRC-3 degradation at 1 uM incubated for 24 hrs by immunoblot analysis relative to control; type: cell-based
MCF-10A = assay: Cytotoxicity against human MCF-10A cells assessed as cell growth by CCK-8 assay; type: toxicity, cell-based
[13] = molecular target: T2, von Hippel-Lindau disease tumor suppressor/Nuclear receptor coactivator 3 (Homo sapiens) (UniProt Q9Y6Q9+P40337); assay: PROTAC activity at VHL/SRC-3 in human MCF7 cells assessed as induction of SRC-3 degradation at 1 uM incubated for 24 hrs by immunoblot analysis relative to control; type: cell-based
[14] = molecular target: T2, von Hippel-Lindau disease tumor suppressor/Nuclear receptor coactivator 3 (Homo sapiens); assay: PROTAC activity at VHL/SRC-3 in human MCF7 cells assessed as induction of […] degradation at 1 uM incubated for 24 hrs by immunoblot analysis relative to control; type: cell-based
[15] = Half life of the compound in human plasma by LC-MS/MS analysis; type: ADME, cell-free
LNCaP = assay: Antiproliferative activity against human LNCaP cells assessed as inhibition of cell growth by CCK-8 assay; type: functional, cell-based
[16] = tested on: Tamoxifen-resistant LCC2 cell; assay: Antitumor activity against tamoxifen-resistant human LCC2 cells xenografted in Balb/c mouse assessed as inhibition of tumor growth at 3 uM/Kg, ip administered once every 2 days for 23 days; type: functional, organism-based; conditions: time 23.0 day
[17] = Metabolic stability of the compound in human plasma measured after 2 hrs by LC-MS/MS analysis; type: ADME, cell-free; conditions: read-out: Stability
[18] = molecular target: T1, Protein cereblon/Nuclear receptor coactivator 3; assay: PROTAC activity at CRBN/SRC-3 in human MCF7 cells assessed as maximal induction of SRC-3 degradation at 1 uM incubated for 36 hrs by immunoblot analysis; type: cell-based
[19] = molecular target: T1, Protein cereblon/Nuclear receptor coactivator 3; assay: PROTAC activity at CRBN/SRC-3 in tamoxifen-resistant human LCC2 cells assessed as maximal induction of SRC-3 degradation at 1 uM incubated for 36 hrs by immunoblot analysis; type: cell-based; conditions: Tamoxifen-resistant LCC2 cell

T1 sequence (Q96SW2 whole entry partner): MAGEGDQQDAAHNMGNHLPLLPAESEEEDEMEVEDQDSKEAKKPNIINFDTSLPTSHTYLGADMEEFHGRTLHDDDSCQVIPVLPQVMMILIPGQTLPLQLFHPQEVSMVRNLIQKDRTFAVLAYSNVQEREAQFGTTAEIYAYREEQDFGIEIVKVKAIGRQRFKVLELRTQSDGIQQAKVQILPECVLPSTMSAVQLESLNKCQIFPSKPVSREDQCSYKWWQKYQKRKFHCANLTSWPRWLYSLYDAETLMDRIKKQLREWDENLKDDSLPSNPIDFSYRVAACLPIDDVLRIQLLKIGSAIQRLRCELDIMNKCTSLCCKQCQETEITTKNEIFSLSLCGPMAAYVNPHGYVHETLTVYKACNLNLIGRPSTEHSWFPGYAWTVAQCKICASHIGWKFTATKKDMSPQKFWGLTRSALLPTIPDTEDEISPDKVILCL
T1 sequence (Q9Y6Q9 2-1424 limits assumed): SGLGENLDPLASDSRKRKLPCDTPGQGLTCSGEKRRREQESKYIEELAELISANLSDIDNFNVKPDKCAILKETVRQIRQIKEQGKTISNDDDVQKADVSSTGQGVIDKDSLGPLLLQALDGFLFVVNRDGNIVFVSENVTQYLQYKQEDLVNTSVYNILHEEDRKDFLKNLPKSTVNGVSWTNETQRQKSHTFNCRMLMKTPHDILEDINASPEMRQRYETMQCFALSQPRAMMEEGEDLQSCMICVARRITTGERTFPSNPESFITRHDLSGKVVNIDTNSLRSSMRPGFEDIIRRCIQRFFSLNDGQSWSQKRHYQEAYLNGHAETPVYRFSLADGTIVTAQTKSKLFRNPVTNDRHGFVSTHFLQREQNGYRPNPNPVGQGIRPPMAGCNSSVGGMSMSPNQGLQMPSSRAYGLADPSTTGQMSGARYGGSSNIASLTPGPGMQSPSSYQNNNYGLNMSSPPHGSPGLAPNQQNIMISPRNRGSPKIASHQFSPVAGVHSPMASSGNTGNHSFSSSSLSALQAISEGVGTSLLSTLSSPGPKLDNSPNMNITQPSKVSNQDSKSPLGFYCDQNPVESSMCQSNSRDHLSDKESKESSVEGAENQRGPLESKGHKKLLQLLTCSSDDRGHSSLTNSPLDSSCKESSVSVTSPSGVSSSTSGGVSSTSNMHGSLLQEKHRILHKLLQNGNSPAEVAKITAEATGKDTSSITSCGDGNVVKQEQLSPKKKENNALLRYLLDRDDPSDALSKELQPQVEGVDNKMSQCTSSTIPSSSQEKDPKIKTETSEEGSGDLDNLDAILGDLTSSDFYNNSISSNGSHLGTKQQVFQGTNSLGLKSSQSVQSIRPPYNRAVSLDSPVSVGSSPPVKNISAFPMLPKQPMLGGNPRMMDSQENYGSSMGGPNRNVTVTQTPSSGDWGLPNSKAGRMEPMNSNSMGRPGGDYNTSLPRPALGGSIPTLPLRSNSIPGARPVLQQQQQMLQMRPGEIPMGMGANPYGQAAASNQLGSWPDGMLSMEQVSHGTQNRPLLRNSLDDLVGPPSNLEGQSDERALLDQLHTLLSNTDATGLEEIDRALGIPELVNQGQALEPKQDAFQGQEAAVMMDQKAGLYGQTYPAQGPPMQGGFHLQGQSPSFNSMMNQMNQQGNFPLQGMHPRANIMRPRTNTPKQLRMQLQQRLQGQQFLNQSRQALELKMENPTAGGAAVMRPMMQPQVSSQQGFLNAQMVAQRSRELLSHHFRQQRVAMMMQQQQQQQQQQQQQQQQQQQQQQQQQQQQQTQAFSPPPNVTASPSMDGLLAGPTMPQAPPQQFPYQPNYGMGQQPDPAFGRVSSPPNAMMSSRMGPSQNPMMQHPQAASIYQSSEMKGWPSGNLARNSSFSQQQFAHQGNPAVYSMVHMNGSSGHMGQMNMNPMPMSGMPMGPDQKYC
T2 sequence (P40337 whole entry, looked up): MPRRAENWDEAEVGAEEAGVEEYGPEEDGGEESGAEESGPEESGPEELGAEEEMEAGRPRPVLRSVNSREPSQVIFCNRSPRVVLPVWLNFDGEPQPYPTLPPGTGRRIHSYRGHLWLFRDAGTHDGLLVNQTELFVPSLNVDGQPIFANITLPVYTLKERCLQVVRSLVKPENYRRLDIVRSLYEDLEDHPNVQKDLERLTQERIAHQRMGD
T2 sequence (Q9Y6Q9 whole entry, looked up): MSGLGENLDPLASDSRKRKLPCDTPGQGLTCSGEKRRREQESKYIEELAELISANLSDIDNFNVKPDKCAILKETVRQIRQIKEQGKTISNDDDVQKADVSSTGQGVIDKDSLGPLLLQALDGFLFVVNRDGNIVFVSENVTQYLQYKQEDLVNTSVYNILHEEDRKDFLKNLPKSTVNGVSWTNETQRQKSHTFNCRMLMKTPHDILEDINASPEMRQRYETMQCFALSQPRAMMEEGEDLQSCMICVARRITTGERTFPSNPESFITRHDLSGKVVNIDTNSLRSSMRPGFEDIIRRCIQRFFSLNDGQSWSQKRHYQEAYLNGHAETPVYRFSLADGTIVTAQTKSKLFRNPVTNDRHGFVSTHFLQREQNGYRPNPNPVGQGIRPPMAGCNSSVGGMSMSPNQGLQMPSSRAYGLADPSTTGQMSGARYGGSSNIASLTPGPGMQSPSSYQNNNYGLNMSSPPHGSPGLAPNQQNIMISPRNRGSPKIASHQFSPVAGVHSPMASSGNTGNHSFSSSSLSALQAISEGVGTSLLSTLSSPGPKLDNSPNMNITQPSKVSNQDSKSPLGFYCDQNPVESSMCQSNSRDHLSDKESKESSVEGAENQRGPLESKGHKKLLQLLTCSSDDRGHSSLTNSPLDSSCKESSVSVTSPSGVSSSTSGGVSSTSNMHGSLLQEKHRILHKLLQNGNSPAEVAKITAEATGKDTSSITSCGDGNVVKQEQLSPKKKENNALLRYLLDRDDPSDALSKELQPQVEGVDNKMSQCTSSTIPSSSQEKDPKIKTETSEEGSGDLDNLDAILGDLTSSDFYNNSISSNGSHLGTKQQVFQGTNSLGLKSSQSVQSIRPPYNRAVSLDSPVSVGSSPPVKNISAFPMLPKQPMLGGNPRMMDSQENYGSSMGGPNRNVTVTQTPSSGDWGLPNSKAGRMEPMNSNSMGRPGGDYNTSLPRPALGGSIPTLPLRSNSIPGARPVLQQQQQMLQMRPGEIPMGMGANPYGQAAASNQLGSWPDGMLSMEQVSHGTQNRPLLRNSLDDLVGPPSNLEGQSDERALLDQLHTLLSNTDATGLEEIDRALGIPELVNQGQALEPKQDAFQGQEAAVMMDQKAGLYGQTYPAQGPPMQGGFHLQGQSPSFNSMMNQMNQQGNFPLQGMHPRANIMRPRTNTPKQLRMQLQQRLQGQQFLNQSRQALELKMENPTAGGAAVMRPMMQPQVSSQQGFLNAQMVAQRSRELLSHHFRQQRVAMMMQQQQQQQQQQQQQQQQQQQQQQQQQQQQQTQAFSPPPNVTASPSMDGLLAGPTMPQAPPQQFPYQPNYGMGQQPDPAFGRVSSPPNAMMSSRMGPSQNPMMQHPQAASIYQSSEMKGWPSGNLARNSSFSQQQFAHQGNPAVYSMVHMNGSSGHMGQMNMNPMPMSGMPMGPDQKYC

| SMILES | IC50 (MCF7 [2]) [nM] | IC50 [5] [µM] | IC50 (MCF7 [8]) [nM] | IC50 (MCF7 [10]) [nM] | Activity [11] | Activity [12] | further results |
| --- | --- | --- | --- | --- | --- | --- | --- |
| C[C@]12CC[C@@H]3c4ccc(O)cc4C[C@@H](CCCCCCCCC[S+]([O-])CCCC(F)(F)C(F)(F)F)[C@H]3[C@@H]1CC[C@@H]2O (stereo partly drawn) [FULVESTRANT] | 6150 | 0.47 | 220 | 580 |  |  | Activity [1]: 69.81%; Activity (Mus musculus): inactive; Activity [3]: 3.06%; Activity (MCF7 [4]): inactive; Activity [6]: 15.07%; Activity (MCF7 [7]): 86%; Activity [9]: 12.06% |
| C/C(=N\Nc1nc2ccccc2n1CC1CCN(C(=O)CCCCCCCNc2cccc3c2CN(C2CCC(=O)NC2=O)C3=O)CC1)c1ccccn1 (stereo not drawn) | 930 | 5.03 | 840 | 1260 | 39% | 32% |  |
| C/C(=N\Nc1nc2ccccc2n1CCNC(=O)CCCCCCCCCCN[C@H](C(=O)N1C[C@H](O)C[C@H]1C(=O)N[C@@H](C)c1ccc(-c2scnc2C)cc1)C(C)(C)C)c1ccccn1 | 160 | 1.06 | 80 | 410 |  |  | Activity (MCF-10A): Non-toxic; Activity [13]: 62%; Activity [14]: 62% |
| C/C(=N\Nc1nc2ccccc2n1C1CN(C(=O)C2CN(c3cccc4c3C(=O)N(C3CCC(=O)NC3=O)C4=O)C2)C1)c1ccccn1 (stereo not drawn) | 19100 | 14.8 | 8240 | 11800 | 5% | inactive |  |
| C/C(=N\Nc1nc2ccccc2n1C1CN(C(=O)C2CCN(c3cccc4c3C(=O)N(C3CCC(=O)NC3=O)C4=O)CC2)C1)c1ccccn1 (stereo not drawn) | 750 | 5.85 | 4880 | 1730 | 15% | 29% |  |
| CC/C(=C(\c1ccc(O)cc1)c1ccc(OCCN(C)C)cc1)c1ccccc1 [AFIMOXIFENE] | 18800 | 26.5 | 380 | 8570 |  |  |  |
| C/C(=N\Nc1nc2ccccc2n1CC1CN(c2cccc3c2C(=O)N(C2CCC(=O)NC2=O)C3=O)C1)c1ccccn1 (stereo not drawn) | 130 | 6.28 | 2970 | 560 | 26% | 15% |  |
| C/C(=N\Nc1nc2ccccc2n1CCNC(=O)CCCCCCCN[C@H](C(=O)N1C[C@H](O)C[C@H]1C(=O)N[C@@H](C)c1ccc(-c2scnc2C)cc1)C(C)(C)C)c1ccccn1 | 360 | 1.94 | 520 | 450 |  |  | Activity (MCF-10A): Non-toxic; Activity [13]: 56%; Activity [14]: 38% |
| C/C(=N\Nc1nc2ccccc2n1CC1CCN(CC(=O)N[C@H](C(=O)N2C[C@H](O)C[C@H]2C(=O)N[C@@H](C)c2ccc(-c3scnc3C)cc2)C(C)(C)C)CC1)c1ccccn1 | 940 | 2.76 | 690 | 690 |  |  | Activity (MCF-10A): Non-toxic; Activity [13]: 21%; Activity [14]: 10% |
| C/C(=N\Nc1nc2ccccc2n1CCNC(=O)CN1CCC2(CC1)CCN(c1ccc3c(c1)C(=O)N(C1CCC(=O)NC1=O)C3=O)CC2)c1ccccn1 (stereo not drawn) | 7200 | 7.99 | 5590 | 6990 | inactive | inactive |  |
| C/C(=N\Nc1nc2ccccc2n1CCNC(=O)CCCCCCN[C@H](C(=O)N1C[C@H](O)C[C@H]1C(=O)N[C@@H](C)c1ccc(-c2scnc2C)cc1)C(C)(C)C)c1ccccn1 | 830 | 3.7 | 470 | 1040 |  |  | Activity (MCF-10A): Non-toxic; Activity [13]: 62%; Activity [14]: 43% |
| CCN(CC)CCOC(=O)c1ccc(N)cc1 [PROCAINE] |  |  |  |  |  |  | half-life [15]: 1.82 min |
| C/C(=N\Nc1nc2ccccc2n1C1CN(c2ccc3c(c2)C(=O)N(C2CCC(=O)NC2=O)C3=O)C1)c1ccccn1 (stereo not drawn) | 680 | 4.94 | 320 | 960 | inactive | 10% |  |
| C/C(=N\Nc1nc2ccccc2n1CC1CCN(c2ccc3c(c2)C(=O)N(C2CCC(=O)NC2=O)C3=O)CC1)c1ccccn1 (stereo not drawn) | 360 | 5.1 | 1130 | 1520 | 34% | 28% |  |
| C/C(=N\Nc1nc2ccccc2n1CCNC(=O)CCCCCCCCN[C@H](C(=O)N1C[C@H](O)C[C@H]1C(=O)N[C@@H](C)c1ccc(-c2scnc2C)cc1)C(C)(C)C)c1ccccn1 | 150 | 0.75 | 60 | 360 |  |  | IC50 (LNCaP): 1430 nM; Activity (MCF-10A): Non-toxic; Activity [13]: 68%; Activity [14]: 65% |
| CC/C(=C(\c1ccccc1)c1ccc(OCCN(C)C)cc1)c1ccccc1 |  |  |  |  |  |  | Activity [16]: inactive |
| C/C(=N\Nc1nc2ccccc2n1CCNC(=O)CCCCCCCCCN[C@H](C(=O)N1C[C@H](O)C[C@H]1C(=O)N[C@@H](C)c1ccc(-c2scnc2C)cc1)C(C)(C)C)c1ccccn1 | 130 | 1.11 | 90 | 350 |  |  | Activity (MCF-10A): Non-toxic; Activity [13]: 63%; Activity [14]: 61% |
| C/C(=N\Nc1nc2ccccc2n1CCNC(=O)C1CC2(CCN(c3ccc4c(c3)C(=O)N(C3CCC(=O)NC3=O)C4=O)CC2)C1)c1ccccn1 (stereo not drawn) | 1060 | 8.63 | 2940 | 1110 | inactive | 5% |  |
| C/C(=N\Nc1nc2ccccc2n1C1CN(c2cccc3c2C(=O)N(C2CCC(=O)NC2=O)C3=O)C1)c1ccccn1 (stereo not drawn) | 100 | 3.36 | 9390 | 520 | 16% | 17% |  |
| C/C(=N\Nc1nc2ccccc2n1CCNC(=O)CCCCCN[C@H](C(=O)N1C[C@H](O)C[C@H]1C(=O)N[C@@H](C)c1ccc(-c2scnc2C)cc1)C(C)(C)C)c1ccccn1 | 2750 | 7.14 | 1590 | 2530 |  |  | Activity (MCF-10A): Non-toxic; Activity [13]: 8%; Activity [14]: 15% |
| C/C(=N\Nc1nc2ccccc2n1CCNC(=O)CN1CCC(CN2CCN(c3ccc4c(c3)C(=O)N(C3CCC(=O)NC3=O)C4=O)CC2)CC1)c1ccccn1 (stereo not drawn) | 500 | 8.74 | 1230 | 850 | 30% | 23% |  |
| C/C(=N\Nc1nc2ccccc2n1CC1CN(c2ccc3c(c2)C(=O)N(C2CCC(=O)NC2=O)C3=O)C1)c1ccccn1 (stereo not drawn) | 320 | 3.11 | 370 | 290 | 15% | inactive |  |
| C/C(=N\Nc1nc2ccccc2n1C)c1ccccn1 | 4 | 0.6 | 470 | 770 |  |  | remaining at 2 h [17]: > 50%; Activity (MCF7 [4]): 53%; half-life [15]: 130 min; Activity (MCF7 [7]): 86% |
| C/C(=N\Nc1nc2ccccc2n1C1CN(C2CCN(c3cccc4c3C(=O)N(C3CCC(=O)N(C)C3=O)C4=O)CC2)C1)c1ccccn1 (stereo not drawn) |  |  |  |  |  |  | Activity [18]: inactive; Activity [19]: inactive |
